According to PubChem BioAssay (NCI):
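96-well plates; 48 h exposure; 5 concentrations. Endpoints by linear interpolation between flanking doses. Not reached: highest tested concentration assigned. GI50: concentration for 50% inhibition of growth. TGI: concentration producing complete growth inhibition.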

Key:
Assay in all cases: NCI anticancer screen, dose series, 48 h
786-0 renal = system: 786-0 renal
A498 renal = system: A498 renal
A549 NSCLC = system: A549 NSCLC
ACHN renal = system: ACHN renal
BT-549 breast = system: BT-549 breast
CAKI-1 renal = system: CAKI-1 renal
CCRF-CEM leukemia = system: CCRF-CEM leukemia
COLO 205 colon = system: COLO 205 colon
DU-145 prostate = system: DU-145 prostate
EKVX NSCLC = system: EKVX NSCLC
HCC-2998 colon = system: HCC-2998 colon
HCT-116 colon = system: HCT-116 colon
HCT-15 colon = system: HCT-15 colon
HL-60(TB) leukemia = system: HL-60(TB) leukemia
HOP-62 NSCLC = system: HOP-62 NSCLC
HOP-92 NSCLC = system: HOP-92 NSCLC
HS 578T breast = system: HS 578T breast
HT29 colon = system: HT29 colon
IGROV1 ovarian = system: IGROV1 ovarian
K-562 leukemia = system: K-562 leukemia
KM12 colon = system: KM12 colon
LOX IMVI melanoma = system: LOX IMVI melanoma
M14 melanoma = system: M14 melanoma
MALME-3M melanoma = system: MALME-3M melanoma
MCF7 breast = system: MCF7 breast
MDA-MB-231 breast = system: MDA-MB-231 breast
MDA-MB-435 = system: MDA-MB-435
MOLT-4 leukemia = system: MOLT-4 leukemia
NCI-H226 lung = system: NCI-H226 lung

With `CC(c1ccccc1)N1C(=O)CSC1=S` (centres undefined) the GI50 (786-0 renal) was 0.628 µM, the TGI (786-0 renal) was greater than 100 µM and the GI50 (A498 renal) was 7.32 µM. The TGI (A498 renal) was 55.3 µM, the GI50 (A549 NSCLC) was 4.67 µM and the TGI (A549 NSCLC) was greater than 59.1 µM. The GI50 (ACHN renal) was 3.61 µM, the TGI (ACHN renal) was greater than 100 µM and the GI50 (BT-549 breast) was 2.46 µM. For the same compound, the TGI (BT-549 breast) was 36 µM, the GI50 (CAKI-1 renal) was 1.33 µM and the GI50 (CCRF-CEM leukemia) was 0.941 µM. For the same compound, the TGI (CCRF-CEM leukemia) was greater than 100 µM, the GI50 (COLO 205 colon) was 0.3 µM and the TGI (COLO 205 colon) was 1.08 µM. The GI50 (DU-145 prostate) was 0.379 µM, the TGI (DU-145 prostate) was 3.66 µM and the GI50 (EKVX NSCLC) was 7.57 µM. The TGI (EKVX NSCLC) was greater than 100 µM, the GI50 (HCC-2998 colon) was 3.08 µM and the TGI (HCC-2998 colon) was 8.86 µM. For the same compound, the GI50 (HCT-116 colon) was 0.137 µM, the TGI (HCT-116 colon) was 1.38 µM and the GI50 (HCT-15 colon) was 0.659 µM. The TGI (HCT-15 colon) was greater than 100 µM, the GI50 (HL-60(TB) leukemia) was 0.14 µM and the TGI (HL-60(TB) leukemia) was 1.45 µM. The GI50 (HOP-62 NSCLC) was 0.526 µM, the TGI (HOP-62 NSCLC) was 14.4 µM and the GI50 (HOP-92 NSCLC) was 4.29 µM. For the same compound, the TGI (HOP-92 NSCLC) was greater than 100 µM, the GI50 (HS 578T breast) was 0.779 µM and the GI50 (HT29 colon) was 0.362 µM. For the same compound, the GI50 (IGROV1 ovarian) was 0.129 µM, the TGI (IGROV1 ovarian) was 0.697 µM and the GI50 (K-562 leukemia) was 0.346 µM. It also gave a TGI (K-562 leukemia) greater than 100 µM, a GI50 (KM12 colon) of 0.0495 µM and a TGI (KM12 colon) of 0.438 µM. For the same compound, the GI50 (LOX IMVI melanoma) was 0.446 µM, the TGI (LOX IMVI melanoma) was 19.5 µM and the GI50 (M14 melanoma) was 0.332 µM. The TGI (M14 melanoma) was 2.99 µM, the GI50 (MALME-3M melanoma) was 7.39 µM and the TGI (MALME-3M melanoma) was greater than 100 µM. The GI50 (MCF7 breast) was 0.0583 µM, the TGI (MCF7 breast) was 13.7 µM and the GI50 (MDA-MB-231 breast) was 0.463 µM. It also gave a TGI (MDA-MB-231 breast) greater than 23.8 µM, a GI50 (MDA-MB-435) of 0.319 µM and a TGI (MDA-MB-435) of 7.21 µM. It also gave a GI50 (MOLT-4 leukemia) of 1.75 µM, a TGI (MOLT-4 leukemia) greater than 100 µM and a GI50 (NCI-H226 lung) of 3.56 µM.
